Patent US11192849B2, “Compounds, compositions, and methods for modulating ferroptosis and treating excitotoxic disorders” (THE TRUSTEES OF COLUMBIA UNIVERSITY IN THE CITY OF NEW YORK, priority 2013, dated 2021)

Experiments:
[1] = tested on: HT-1080 cells; assay: LOC library screening and confirmation: suppression of erastin-induced death; type: cell-based; conditions: Homo sapiens, LOC library screening and confirmation studies, read-out: EC50, inhibition of erastin-induced ferroptosis
Procedure: The LOC library was screened over the course of several days. 384-well glass bottom assay plates (Corning) were seeded with 1,000 HT-1080 cells/well the day before the experiment. The day of the experiment, LOC mother plates were thawed at room temperature for 1 hour and spun at 1000 rpm for 1 minute prior to use. Using a BioMek liquid handing robot, 2 μL of compound solution from each LOC library mother plate was transferred to a 384 deep well “daughter” plate (Grenier) containing 148 μL of cell culture media. The cell culture media in each assay plate was then removed by flicking and, using a BioMek FX, replaced with 36 μL of growth media containing erastin (5 μM final). To this was added 4 μL of the drug solution from the daughter plate, for a final screening concentration of 5.3 μg/mL for each LOC library compound. 4 wells containing DMSO alone (no erastin), 4 wells containing 100 μM DFO alone (no erastin), 4 wells containing erastin plus DMSO, and 4 wells containing erastin plus 100 μM DFO (positive control) were included as controls on each plate. Each drug daughter plate was aliquoted separately to duplicate assay plates. Plates were then spun briefly (1000 rpm, 5 seconds) and returned to the 37° C. tissue culture incubator. 24 hours later, cell viability was assessed by Alamar Blue as described above.
Candidate hits from the LOC library screen were identified. […]

[2] = tested on: mice, CaOx-induced nephropathy; assay: Acute oxalate nephropathy model; type: in vivo, mouse; conditions: Ferrostatin-1 10 mg/kg i.p.
Procedure: Mice were divided into two groups. One group received vehicle injections and another group received Ferrostatin-1 (10 mg/kg i.p.). Then, 15 min later, both groups were given a single i.p. injection of 100 mg/kg sodium oxalate and 3% sodium oxalate in drinking water. Blood samples and kidneys were harvested after 24 h. Kidneys were kept at −80° C. for protein isolation and at −20° C. for RNA isolation. One part of the kidney was also kept in formalin to be embedded in paraffin for histological analysis. Kidney sections (2 μm) were stained with periodic acid-Schiff (PAS) reagent. Tubular injury was scored by assessing the percentage of necrotic tubules. Ly6B.2+ neutrophils were identified by immunostaining (clone 7/4; Serotec). Pizzolato stain was used to visualize CaOx crystals, and crystal deposit formation in the kidney was evaluated as described previously (Mulay et al., 2013), using the following point values: 0, no deposits; 1, crystals in papillary tip; 2, crystals in cortical medullary junction; 3, crystals in cortex. […] Serum creatinine and blood urea nitrogen were measured using Creatinine FS kit and Urea FS kit (both from DiaSys Diagnostic Systems) according to the manufacturer's protocol. Neutrophil infiltrates were counted in 15 high-power fields (hpfs) per section. For real-time quantitative RT-PCR, total RNA was isolated from kidneys using a Qiagen RNA extraction kit following the manufacturer's instructions. After quantification, RNA quality was assessed using agarose gels. […] Real-time quantitative RT-PCR (TaqMan) was performed using SYBR-Green PCR master mix and analyzed with a Light Cycler 480 (Roche). […] The expression of KIM-1, IL-6, CXCL-2, and NF-κB p65 was analyzed using the following primers: Kim-1 forward, 5′-[…]-3′ (SEQ ID NO:17); Kim-1 reverse, 5′-[…]-3′ (SEQ ID NO:18); IL-6 forward, 5′-[…]-3′ (SEQ ID NO:19); IL-6 reverse, 5′-[…]-3′ (SEQ ID NO:20); CXCL-2 forward, 5′-[…]-3′ (SEQ ID NO:21); CXCL-2 reverse, 5′-[…]-3′ (SEQ ID NO:22); NF-κB p65 forward, 5′-[…]-3′ (SEQ ID NO:23); NF-κB p65 reverse, 5′-[…]-3′ (SEQ ID NO:24).

SMILES: CCOC(=O)c1ccc(NC2CCCCC2)c(N)c1 [SRS8-28 (Fer-1), ethyl 3-amino-4-(cyclohexylamino)benzoate]
- EC50 [1]: 60 nM
- neutrophil infiltration and expression of CXCL-2, IL-6, KIM-1, p65 [2]: statistically significantly reduced
- serum creatinine and urea [2]: significantly reduced
- tubular injury score [2]: significantly reduced
